Experiments:
[1] = tested on: Trichophyton rubrum, T. interdigitale, Microsporum fulvum and C. albicans; assay: Inhibition assays of Example 1, summary across the range of fungal pathogens; format: cell-based; conditions: summary of Table 3, at the concentrations tested
Method: (§1) The inhibitory effects of the plant defensins on the growth of Trichophyton rubrum, T. interdigitale, Microsporum fulvum and C. albicans (all obtained from the National Mycology Reference Centre, South Australia Pathology at the Women's and Children's Hospital, Adelaide, Australia) are measured essentially as described by Broekaert et al. (1990) FEMS Microbiol Lett 69:55-59.
(§2) Spores of T. rubrum, T. interdigitale and M. fulvum are isolated from sporulating fungus growing on ½ strength Sabouraud dextrose agar. Spores were removed from the plates by the addition of ½ strength potato dextrose broth (PDB). C. albicans cells are grown in Yeast Peptone Broth (YPD) for 16 h. Spore and cell concentrations are measured using a hemocytometer.
(§3) Antifungal assays are conducted in 96 well microtitre plates essentially as herein described. Wells are loaded with 20 μL of filter sterilized (0.22 Ξ m syringe filter, Millipore) defensin (10× stock for each final concentration) or water and 80 μL of 5×10^4 spores/mL (T. rubrum, T. interdigitale, M. fulvum) or 5,000 cells/mL (C. albicans) in ½ strength PDB. The plates are incubated at 30° C. Fungal growth is assayed by measuring optical density at 595 nm (A595) using a microtitre plate reader (SpectraMax Pro M2; Molecular Devices. Growth is allowed to proceed until the optical density (OD) of the fungus in the absence of any test defensin reached an OD of 0.2. Each test is performed in duplicate.

C. neoformans = assay: Inhibition of growth of Cryptococcus neoformans, Example 2 antifungal assay; format: cell-based; conditions: ½ strength PDB, 30° C., A595
Method: (§4) The inhibitory effects of the plant defensins on the growth of Candida albicans, Aspergillus fumigatus (obtained from the National Mycology Reference Centre, South Australia Pathology at the Women's and Children's Hospital, Adelaide, Australia), C. glabrata, C. tropicalis, A. flavus, A. niger, A. fumigants, Cryptococcus neoformans and C. gattii (obtained from Dee Carter, University of Sydney, New South Wales, Australia) are measured essentially as described by Broekaert et al. (1990) FEMS Microbiol Lett 69:55-59.
(§5) Spores of A. flavus. A. niger and A. fumigatus are isolated from sporulating fungus growing on ½ strength Sabouraud dextrose agar. Spores were removed from the plates by the addition of ½ strength potato dextrose broth (PDB). C. albicans, C. glabrata, C. tropicalis, C. neoformans and C. gattii cells are grown in Yeast Peptone Broth (YPD) for 16 h. Spore and cell concentrations are measured using a hemocytometer.
as §3, with “μm” for “Ξ m”, “(A. flavus, A. niger, A. fumigatus),” for “(T. rubrum, T. interdigitale, M. fulvum) or”, “albicans, C. glabrata, C. tropicalis) or 1×10^6 cells/mL (C. neoformans, C. gattii)” for “albicans)”

M. fulvum = assay: Inhibition of growth of Microsporum fulvum by plant defensins (microtitre A595 antifungal assay); format: cell-based; conditions: ½ strength PDB, 30° C., A595
Method: as §1, §2, §3

C. gattii = assay: Inhibition of growth of C. gattii, Example 2 antifungal assay; format: cell-based; conditions: ½ strength PDB, 30° C., A595
Method: as §4, §5
as §3, with “μm” for “Ξ m”, “(A. flavus, A. niger, A. fumigatus),” for “(T. rubrum, T. interdigitale, M. fulvum) or”, “albicans, C. glabrata, C. tropicalis) or 1×10^6 cells/mL (C. neoformans, C. gattii)” for “albicans)”

T. interdigitale = assay: Inhibition of growth of T. interdigitale by plant defensins (microtitre A595 antifungal assay); format: cell-based, Trichophyton interdigitale; conditions: ½ strength PDB, 30° C.
Method: as §1, §2, §3

T. rubrum = assay: Inhibition of growth of Trichophyton rubrum by plant defensins (microtitre A595 antifungal assay); format: cell-based; conditions: ½ strength PDB, 30° C.
Method: as §1, §2, §3

A. flavus = assay: Inhibition of growth of A. flavus, Example 2 antifungal assay; format: cell-based; conditions: ½ strength PDB, 30° C., A595
Method: as §4, §5
as §3, with “μm” for “Ξ m”, “(A. flavus, A. niger, A. fumigatus),” for “(T. rubrum, T. interdigitale, M. fulvum) or”, “albicans, C. glabrata, C. tropicalis) or 1×10^6 cells/mL (C. neoformans, C. gattii)” for “albicans)”

A. niger = assay: Inhibition of growth of A. niger, Example 2 antifungal assay; format: cell-based; conditions: ½ strength PDB, 30° C., A595
Method: as §4, §5
as §3, with “μm” for “Ξ m”, “(A. flavus, A. niger, A. fumigatus),” for “(T. rubrum, T. interdigitale, M. fulvum) or”, “albicans, C. glabrata, C. tropicalis) or 1×10^6 cells/mL (C. neoformans, C. gattii)” for “albicans)”

[2] = tested on: clinical isolates of T. rubrum (14-01, 14-02, 14-03, 13-04); assay: Inhibition of growth of clinical isolates of T. rubrum (FIG. 2); format: cell-based, Trichophyton rubrum; conditions: all four clinical isolates
Method: FIG. 2(A) is a graphical representations showing the effect of the plant defensins NaD1 (dashed line) and HXL008 (solid line) on the growth of clinical isolate 14-01 of Trichophyton rubrum in vitro. Fungal growth was measured by the increase in optical density at 595 nm (A595) achieved 72 hours after inoculation of the growth medium and is plotted as a percentage of growth relative to a no-protein control (vertical axis) versus protein concentration (μg/mL, horizontal axis).
FIG. 2(B) is a graphical representation showing the effect of the plant defensins NaD1 (dashed line) and HXL008 (solid line) on the growth of clinical isolate 14-02 of Trichophyton rubrum in vitro. Fungal growth was measured by the increase in optical density at 595 nm (A595) achieved 72 hours after inoculation of the growth medium and is plotted as a percentage of growth relative to a no-protein control (vertical axis) versus protein concentration (μg/mL, horizontal axis). […]
Antifungal assays are conducted in 96 well microtitre plates essentially as herein described. […] Fungal growth is assayed by measuring optical density at 595 nm (A595) using a microtitre plate reader (SpectraMax Pro M2; Molecular Devices. Growth is allowed to proceed until the optical density (OD) of the fungus in the absence of any test defensin reached an OD of 0.2. Each test is performed in duplicate.

B. subtilis = assay: Inhibition of the growth of Bacillus subtilis (OD595, 18 hours); format: cell-based; conditions: at the concentrations tested (0.3125-20 μM)
Method: A single E. coli or B. subtilis colony was used to inoculate 5 ml of Luria-Bertani media and grown overnight at 37° C. The following day, the optical density of the culture was measured and the bacteria diluted to an optical density at 600 nm (OD600) of 0.01 in Mueller-Hinton Broth. Diluted E. coli or B. subtilis were added to 96-well plates with defensins at concentrations of 20 μM, 10 μM, 5 μM, 2.5 μM, 1.25 μM, 0.625 μM or 0.3125 μM. Plates were read at OD595 to obtain time zero data points. Plates were incubated at 37° C. for 18 hours before reading again at OD595 to assess the amount of bacterial growth.

C. glabrata = assay: Inhibition of growth of C. glabrata, Example 2 antifungal assay; format: cell-based; conditions: ½ strength PDB, 30° C., A595
Method: as §4, §5
as §3, with “μm” for “Ξ m”, “(A. flavus, A. niger, A. fumigatus),” for “(T. rubrum, T. interdigitale, M. fulvum) or”, “albicans, C. glabrata, C. tropicalis) or 1×10^6 cells/mL (C. neoformans, C. gattii)” for “albicans)”

With “HXL008: Class I plant defensin from Picramnia pentandra (KVCTKPSKFFKGLCGTDGACTTACRKEGLHSGYCQLKGFLNSVCVCRKHC; HXL008 Picramnia pentandra)” the “Activity across the range of fungal pathogens” value [1] was “most effective”, the “IC50 against C. neoformans” value (C. neoformans) was 2.5 µg/mL and the “IC50 against M. fulvum” value (M. fulvum) was 7 µg/mL. The “IC50 against C. gattii” value (C. gattii) was 12 µg/mL, the “IC50 against T. interdigitale” value (T. interdigitale) was 3.5 µg/mL and the “IC50 against T. rubrum” value (T. rubrum) was 3 µg/mL. For the same substance, the “IC50 against A. flavus” value (A. flavus) was 40 µg/mL, the “IC50 against A. niger” value (A. niger) was 42 µg/mL and the “Growth inhibition of T. rubrum clinical isolates compared with NaD1” value [2] was “inhibited growth at a lower concentration than NaD1”. For the same substance, the “Inhibition of growth of B. subtilis” value (B. subtilis) was “did not inhibit the growth” and the “IC50 against C. glabrata” value (C. glabrata) was 20 µg/mL.

Source: patent publication US20180193412A1, “Method of In Vivo Treatment” (Hexima Limited, priority 2015, published 2018)
